# Results published in US20220348876A1, “METABOLISM GUIDES DEFINITIVE LINEAGE SPECIFICATION DURING ENDOTHELIAL TO HEMATOPOIETIC TRANSITION” (Amniotics AB, priority 2019, published 2022).
# Where two headings read alike, the source gives them in different places.
# What was measured:
# HE cells [1] = assay: HE cell subculture with compounds, flow cytometry; assay type: cell-based, human; conditions: for HE-derived CD43+GPA+ cell output: day 3 of subculture vs control, UK5099 10 μM, DCA 3 mM
# From the text: The RB9-CB1 human iPSC line was co-cultured with mouse embryonic fibroblasts (MEFs, Millipore), passaged every six days and processed to form embryoid bodies (EBs) as described previously (Guibentif, C. et al. Cell Reports 19, 10-19 (2017)). The differentiation protocol used in this study was previously described (Ditadi, A. & Sturgeon, C. M. Methods 101, 65-72 (2016)), however, small modifications were made to induce both primitive and definitive hematopoiesis, as indicated below and in FIG. 7, a. Newly-formed EBs were first kept in SFD medium supplemented with 1 ng/ml Activin A (on days 0-2) and 3 μM CHIR99021 (on day 2 only). At day 3, media was switched to “Day 3-SP34” medium supplemented with 1 ng/ml Activin A (on day 3 only) and 3 μM CHIR99021 (on day 3 only) until day 6. On day 6, media was replaced by “Day 6-SP34” medium, until day 8. In some experiments where indicated, to obtain a higher yield of HSC-like cells, EBs were kept until day 10: in this case, EBs were plated onto Matrigel (8 μg/cm^2, Corning)-coated dishes on day 8 and kept until day 10. Media was changed every day, except on days 5 and 7. On day 8 or 10 (as indicated), EBs were singularized with 5-6 rounds of 5-minute incubations with TryPLE Express (Thermo Fisher Scientific). CD34^+ cells were selected using the human CD34 MicroBead kit (Miltenyi Biotec) and stained with CD34-FITC, CD73-PE, VECad-PerCPCy5.5, CD38-PC7, CD184-APC, CD45-AF700, CD43-APCH7, GPA-eF450, CD90-BV605 and the viability marker 7AAD in order to sort HE (CD34^+CD43^−CXCR4^−CD73^−CD90^+VECad^+), EHT (CD34^+CD43^intCXCR4^−CD73^−CD90^+VECad^+) and HSC-like (CD34^+CD43^+CD90^+CD38^−) cells, according to previously described markers (Guibentif, C. et al. Cell Reports 19, 10-19 (2017); Harris, J. M. et al. Blood 121, 2483-2493 (2013) and Schenk, T. et al. Nat Med 18, 605-611 (2012)).
# Sorted HE (40,000), EHT (30,000) and HSC-like (5-20,000) cells were plated onto Matrigel (16 μg/cm^2, Corning)-coated 96-well flat bottom plates in HE medium (30) with 1% penicillin-streptomycin and kept in a humidified incubator at 37° C., 5% CO2, 4% O2 overnight. […] Media was changed and drugs were added every 2 days and cells were kept in a humidified incubator at 37° C., 5% CO2, 20% O2 for 6-7 days.
# (§1) To measure proliferation, cells were processed with the CellTrace Violet (CTV) kit according to manufacturer's instructions (10-minute incubation) and fluorescence was measured on a BD LSRFortessa. […] Flow cytometry outputs were analyzed on FlowJo Software, with initial gatings on SSC-A/FSC-A, FSC-H/FSC-A, SSC-H/SSC-A and 7-AAD to exclude doublets and dead cells in all experiments.
# HSC-like cells = assay: HSC-like cell subculture with compounds, flow cytometry; assay type: cell-based, human; conditions: day 3, 2-DG 1 mM
# EHT cells = assay: EHT cell subculture with compounds, flow cytometry; assay type: cell-based, human; conditions: EHT cells, day 3; 2-DG 1 mM
# From the text: The RB9-CB1 human iPSC line was co-cultured with mouse embryonic fibroblasts (MEFs, Millipore), passaged every six days and processed to form embryoid bodies (EBs) as described previously (Guibentif, C. et al. Cell Reports 19, 10-19 (2017)). The differentiation protocol used in this study was previously described (Ditadi, A. & Sturgeon, C. M. Methods 101, 65-72 (2016)), however, small modifications were made to induce both primitive and definitive hematopoiesis, as indicated below and in FIG. 7, a. Newly-formed EBs were first kept in SFD medium supplemented with 1 ng/ml Activin A (on days 0-2) and 3 μM CHIR99021 (on day 2 only). At day 3, media was switched to “Day 3-SP34” medium supplemented with 1 ng/ml Activin A (on day 3 only) and 3 μM CHIR99021 (on day 3 only) until day 6. On day 6, media was replaced by “Day 6-SP34” medium, until day 8. […]
# as §1
# HE cells [2] = assay: Lymphoid differentiation assay on OP9-DL1 stroma; assay type: cell-based, human; conditions: 3-day subculture in glutamine-free medium, then 35-day co-culture
# Experimental: Subculture day 3 HE cells cultured in the presence of UK5099 (10 μM), DCA (3 mM), or in glutamine-free medium with DMK (1.75 mM), nucleosides (1×) or NEAAs (1×), as indicated, were collected after a 2-minute incubation at 37° C. with StemPro Accutase Cell Dissociation Reagent and seeded onto 80% confluent OP9-DL1 stroma. Cells were cultured in OP9 medium with SCF (10 ng/ml), FLT3-L (10 ng/ml), IL-2 (5 ng/ml), IL-7 (5 ng/ml, first 15 days only) and IL-15 (10 ng/ml) with passaging onto new OP9-DL1 stroma every week, as described previously (Renoux, V. M. et al. Immunity 43, 394-407 (2015)). At day 35 of co-culture, cells were analyzed on a BD LSRFortessa.
# [3] = system: HE, EHT and HSC-like cells; conditions: 100 μM FCCP, all cell types
# Experimental: On days 3 and 6 of subculture, cells were collected after a 2-minute incubation at 37° C. with StemPro Accutase Cell Dissociation Reagent and stained with CD34-FITC, CD14-PE, CD33-PC7, CD11b-APC, CD45-AF700, CD43-APCH7, GPA-eF450, CD90-BV605 and the viability marker 7AAD and fluorescence was measured on a BD LSRII. To measure mitochondrial activity, cells were incubated with Tetramethylrhodamine ethyl ester (TMRE, 20 nM) for 30 minutes at 37° C. Negative controls were incubated with 100 μM FCCP for 30 minutes at 37° C., prior to TMRE staining. […] III and MFI levels—MFI FMO were calculated. […] III. To measure proliferation, cells were processed with the CellTrace Violet (CTV) kit according to manufacturer's instructions (10-minute incubation) and fluorescence was measured on a BD LSRFortessa. To measure EdU incorporation, HE cells were assessed on day 1 or 2 of subculture after 24 h EdU pulses, using Click-iT EdU Flow Cytometry Cell Proliferation Assay (Thermo Fisher Scientific, C10424), according to manufacturer's instructions. Flow cytometry outputs were analyzed on FlowJo Software, with initial gatings on SSC-A/FSC-A, FSC-H/FSC-A, SSC-H/SSC-A and 7-AAD to exclude doublets and dead cells in all experiments.
# [4] = day 6 of subculture vs control, BPTES 25 μM, 1-AA 4 mM, TCP 300 nM, C646 10 μM, CP 5 μM
smiles,measurement,setting,value
"N[C@@H]1C[C@H]1c1ccccc1 (racemic) [TCP, Tranylcypromine]",CD43+GPA+ cell frequency following UK5099 treatment of HE cells,HE cells [1],no increase
same,HE-derived CD43+CD45+ population,HE cells [1],more CD43^+CD45^+ cells
same,myeloid differentiation (CD43+CD45+CD33+CD11b+),HE cells [1],specifically increased
"CC(N)[PH](=O)O (stereo not drawn) [1-AA, 1-aminoethylphosphinic acid]",HE-derived CD43+GPA+ cell output,"HE cells [1]; BPTES 25 μM, 1-AA 4 mM",significant increase
same,levels of total CD43+ cells,"HE cells [1]; day 6, treated vs untreated",unchanged
same,HE-derived CD43+CD45+ population,HE cells [1]; [4],significant decrease
"O=CC[C@@H](O)[C@H](O)[C@H](O)CO [2-DG, 2-Deoxy-D-glucose]",proliferation rate (CellTrace Violet),HSC-like cells,significantly reduced
same,proliferation rate (CellTrace Violet),EHT cells,significantly reduced
same,generation of the CD43+GPA+ cell population,"HE cells [1]; day 3, % of the control, 2-DG 1 mM",less than 50%
same,CD43+ cell output from HE cells,"HE cells [1]; day 3 of subculture, 2-DG 1 mM",significantly reduced
same,generation of the CD43+CD45+ cell population,"HE cells [1]; day 6, % of the control, 2-DG 1 mM",less than 50%
O=C(Cc1ccccc1)Nc1nnc(CCSCCc2nnc(NC(=O)Cc3ccccc3)s2)s1 [BPTES],HE-derived CD43+GPA+ cell output,"HE cells [1]; BPTES 25 μM, 1-AA 4 mM",sharp decline
same,HE-derived CD43+CD45+ population,HE cells [1]; [4],sharp decline
CC1=NN(c2ccc(C(=O)O)cc2)C(=O)/C1=C\c1ccc(-c2cc(C)c(C)cc2[N+](=O)[O-])o1 [C646],HE-derived CD43+CD45+ population,HE cells [1]; [4],did not have an effect
O=C(c1c2ccccc2cc2ccccc12)N1CCC(N2CCC[C@@H](C(=O)N3CCOCC3)C2)CC1 [CP-640186],HE-derived CD43+CD45+ population,HE cells [1]; [4],had the same effect as DCA
"COC(=O)CCC(=O)C(=O)OC [DMK, dimethyl-ketoglutarate]",NK cell differentiation (CD45+CD56+),HE cells [2],allowed efficient NK cell differentiation
same,CD43+GPA+ population,"HE cells [1]; HE subcultures without glutamine, days 3 and 6, vs control",could not rescue
same,proliferation profile of HE cells (CTV),"HE cells [1]; glutamine deprivation, day 3, vs control",could not restore
same,percentage of CD43+ cells that have lost CD34 expression,"HE cells [1]; glutamine-free DMK-treated condition vs control, day 3",significantly decreased
same,rescue of CD43+ cell output from HE cells,"HE cells [1]; glutamine-free medium, day 3, DMK 1.75 mM",up to 60%
same,percentages of CD43+CD45+ cells,"HE cells [1]; glutamine-free medium, day 6, compared to the control",significant increase
"N#CC(C#N)=NNc1ccc(OC(F)(F)F)cc1 [FCCP, Carbonyl cyanide 4-(trifluoromethoxy)phenylhydrazone]",TMRE signal,[3],abrogated the TMRE signal
"CC(/C=C/C(=O)NO)=C\[C@@H](C)C(=O)c1ccc(N(C)C)cc1 [TSA, Trichostatin A]",emergence of CD43+ hematopoietic cells,"HE cells [1]; TSA 60 nM, day 3",impaired the emergence
CC(C)c1c(C(=O)Nc2ccccc2)c(-c2ccccc2)c(-c2ccc(F)cc2)n1CC[C@@H](O)C[C@@H](O)CC(=O)O [atorvastatin],effect of DCA on CD43+CD45+ cells,HE cells [1]; Ato 0.5 μM in combination with DCA 3 mM,abrogated the effect of DCA
